Blank lines part the entries; values can stand above or below the molecule they belong to.
Legend:
polyamine transporter [1] = assay: Spermidine uptake ([3H]spermidine) in CHO-K1 cells; format: cell-based, Chinese hamster; details: MESC thioether derivatives, FIG. 5
[2] = DESC stability in biological media (HPLC, cell-free); format: physicochemical; details: imem medium, 37° C., 5% CO2, cell-free, read-out: Fraction of compound decomposed
Protocol: DESC stability--DESC stability was tested by incubating the compound dissolved (at 50 μM) in PBS or in IMEM medium containing 10% (v/v) fetal bovine serum plus or minus 1 mM aminoguanidine in a humid 5% CO2 atmosphere at 37° C. and in the absence of cells. At indicated times, trichloroacetic acid was added to aliquots of this solution to a final concentration 10% (w/v) and the samples directly analyzed by HPLC as above.

polyamine transporter [3] = assay: Spermine uptake ([14C]spermine) in ZR-75-1 cells; format: cell-based, human
Protocol: J. Biol. […] Endocrinology 126: 3223-3231). […] Cell cultures were then washed twice with 1 ml PBS containing 5.7 mM sym-norspermidine. Cells were then lysed with 200-μl aliquot of 1 N NaOH and incubated for 30 minutes at 60° C. After neutralization with 200 μl of 1 N HCl, radioactivity was determined from a 250-μl of the cell lysate by scintillation counting. Uptake activity was expressed per amount of total cellular protein as determined by the method of Bradford (Bradford, M. M. 1976. Anal. Biochem. 72: 248-254). Non-specific binding of radioactive substrate was similarly determined in parallel for both cell lines after a 15 second-incubation with 400 μl of ice-cold uptake solution. […] Km, Ki and Vmax values were then estimated by Line-weaver-Burke analysis. For competitive inhibitors, Ki values were also estimated by measuring uptake activity in the presence of logarithmically increasing concentrations of antagonist, and using the Cheng-Prusoff equation (Cheng. Y. -C. and Prusoff, W. H. 1973. Biochem. Pharmacol. 22: 3099-3108) by iterative curve fitting for a sigmoidal curve. For mixed competitive/noncompetitive inhibition, two methods were used to calculate kinetic constants. […] C. 1976. Enzymes, 3rd Ed., Academic Press, San Diego, Calif.). […] C. 1976. Enzymes, 3rd Ed., Academic Press, San Diego, Calif.).

[4] = Stability in buffered aqueous solution; format: physicochemical; details: buffered at pH=7.0
ZR-75-1 cells [5] = assay: Intracellular accumulation of DESC and MESC and polyamine contents (HPLC); format: cell-based, human
Protocol: Polyamine Analysis--ZR-75-1 cells were plated in 100 mm culture dishes at 5×10^5 cells/dish in MEZR medium and grown for 5 days with medium changes every other day. Fresh MEZR medium containing the indicated concentration of transport antagonist was then added, plus or minus 200 μM cycloheximide (CHX), and cells were incubated for 1 or 6 hours. […] Cell pellets were resuspended in 300 μl of 10% (v/v) trichloroacetic acid or Tris-DTT buffer (50 mM Tris/HCl, 0.1 mM EDTA, 5 mM DTT, pH 7.5) and stored at -20° C. until further analysis. For chromatographic analysis, samples were first quickly thawed and incubated for 15 minutes at 37° C. Trichloroacetic acid was then added to DTT-containing samples to a final concentration of 10% (wt/v). Samples were dispersed for 2 minutes in a sonicating water bath, and pelleted in a microcentrifuge for 5 minutes. The trichloroacetic acid-insoluble pellet was solubilized in 300-500 μl of 1 N NaOH and used to determine protein content using bovine serum albumin (fraction V) as standard.
Since DESC was eluted as a late, broad peak in the HPLC system used, DTT was added to cell extracts to reduce DESC to MESC and decrease the detection threshold. ZR-75-1 cells were incubated for 1 or 6 hours in MEZR medium in the presence of 50 or 200 μM DESC or MESC prior to determination of polyamine contents. CHX was added at 200 μM where indicated. Other details are provided under "Materials and Methods". Values are the mean±SD of triplicate determinations from 2 independent experiments.

ZR-75-1 cells [6] = assay: Reversal of DFMO-induced growth inhibition by exogenous spermidine; format: cell-based, human; details: 50 μM, DESC:spermidine ratio up to 500
Protocol: Effect of Inhibitors on Cell Proliferation--For growth studies, ZR-75-1 cells were cultured in MEZR medium or in phenol red-free RPMI 1640 supplemented with 2 mM L-glutamine, 1 mM sodium pyruvate, 15 mM Hepes, antibiotics, 1 nM 17β-estradiol, 0.5 μg of bovine insulin per ml and 5% (v/v) charcoal-treated fetal bovine serum (SD medium), as indicated in the text. When polyamines or polyamine analogs were added to serum-containing media, 1 mM aminoguanidine was added to inhibit bovine serum amine oxidase (BSAO) activity (Morgan, D. M. L. 1989. in The Physiology of Polyamines (Bachrach, U., and Helmer, Y. M. eds) Vol. I, pp. 203-229, CRC Press, Boca Raton). The effect of the transport inhibitors on cell growth was measured by incubating ZR-75-1 cells for 11 days in medium supplemental with antagonist, polyamines and/or 1 mM DFMO as indicated, followed by colorimetric determination of DNA content with 3,5-diaminobenzaic acid (Simard, J., Dauvois, S., Haagensen, D. E., Levesque, C., Merand, Y. and Labrie, F. 1990. Endocrinology 126: 3223-3231). Medium was changed every other day in these experiments because of the slow reaction of the compound with an unknown component present in the IMEM and RPMI 1640 medium formulation.

ZR-75-1 cells [7] = assay: Time course of intracellular [3H]spermidine accumulation with transport antagonists; format: cell-based; details: Homo sapiens
Protocol: The time course of intracellular accumulation of spermidine in the presence of transport antagonists was determined by incubating ZR-75-1 cells in 24-well plates with DESC (50 or 200 μM) or MESC (200 μM) in dissolved in MEZR medium containing 5 μM [^3 H]spermidine in the presence or absence of cycloheximide (CHX, 200 μM), and harvesting at the indicated times for the determination of intracellular radioactive contents, as described above for polyamine uptake assays.

ZR-75-1 cells [8] = assay: Effect of inhibitors on cell proliferation (11 days, DNA content); format: cell-based, human; details: 1 mM, 11 days
Protocol: Effect of Inhibitors on Cell Proliferation--For growth studies, ZR-75-1 cells were cultured in MEZR medium or in phenol red-free RPMI 1640 supplemented with 2 mM L-glutamine, 1 mM sodium pyruvate, 15 mM Hepes, antibiotics, 1 nM 17β-estradiol, 0.5 μg of bovine insulin per ml and 5% (v/v) charcoal-treated fetal bovine serum (SD medium), as indicated in the text. […] M. L. 1989. in The Physiology of Polyamines (Bachrach, U., and Helmer, Y. M. eds) Vol. I, pp. 203-229, CRC Press, Boca Raton). […] Endocrinology 126: 3223-3231). Medium was changed every other day in these experiments because of the slow reaction of the compound with an unknown component present in the IMEM and RPMI 1640 medium formulation.

polyamine transporter [9] = details: ZR-75-1 cells; compound as its own substrate; read-out: Km, putrescine transport; cited from earlier work
[10] = 200 μM compound + 200 μM CHX, 1 h
[11] = 200 μM compound + 200 μM CHX, 6 h

SMILES: [N-]=[N+]=Nc1ccc(C(=O)NCCCCNC(=O)CSCCNC(=O)C(CCCNCCCN)NCCCN)c(O)c1 (centres unmarked) [MESC-ASIB]
Ki toward spermidine uptake compared with MESC (polyamine transporter [1]): did not signicantly (P>0.10) increase the Ki

SMILES: NCCCNCCCC(NCCCN)C(=O)NCCSCC(N)=O (centres unmarked) [MESC-acetamide]
Ki toward spermidine uptake compared with MESC (polyamine transporter [1]): did not signicantly (P>0.10) increase the Ki

degraded at 48 h, 50 µM [2]: 40%
Stability in aqueous solution [4]: stable for months
DESC intracellular content (ZR-75-1 cells [5]; 50 μM compound, 1 h): < 0.01 nmol/mg protein
MESC intracellular content (ZR-75-1 cells [5]; 50 μM compound, 1 h): < 0.01 nmol/mg protein
DESC intracellular content (ZR-75-1 cells [5]; 50 μM compound, 6 h): < 0.01 nmol/mg protein
MESC intracellular content (ZR-75-1 cells [5]; 50 μM compound, 6 h): < 0.01 nmol/mg protein
Effect of CHX on internalization of the compound (ZR-75-1 cells [5]; 200 μM DESC + 200 μM CHX): did not enhance DESC internalization
DESC intracellular content (ZR-75-1 cells [5]; [10]): < 0.01 nmol/mg protein
MESC intracellular content (ZR-75-1 cells [5]; [10]): < 0.01 nmol/mg protein
MESC intracellular content (ZR-75-1 cells [5]; [11]): < 0.01 nmol/mg protein
DESC intracellular content (ZR-75-1 cells [5]; 200 μM compound, 1 h): < 0.01 nmol/mg protein
MESC intracellular content (ZR-75-1 cells [5]; 200 μM compound, 1 h): < 0.01 nmol/mg protein
DESC intracellular content (ZR-75-1 cells [5]; 200 μM compound, 6 h): 0.12 ± 0.01 nmol/mg protein
MESC intracellular content (ZR-75-1 cells [5]; 200 μM compound, 6 h): < 0.01 nmol/mg protein
Intracellular level relative to accumulation of substrates (spermidine, sym-norspermidine, spermine) under identical conditions (ZR-75-1 cells [5]; 200 μM, 6 h): about 1.5%
SMILES: NCCCNCCCC(NCCCN)C(=O)NCCSSCCNC(=O)C(CCCNCCCN)NCCCN (centres unmarked) [DESC, 2,2'-dithiobis(N-ethyl-spermine-5-carboxamide)]
Increase in affinity for the polyamine transporter on dimerization of MESC into DESC (polyamine transporter [3]; DESC relative to MESC): up to 20 fold
Ki against [14C]spermine transport, fold lower than that of DEASC (polyamine transporter [3]; ZR-75-1 cells, FIG. 2): about 5 fold
Ki against [14C]spermine transport, fold lower than that of MESC (polyamine transporter [3]; ZR-75-1 cells, FIG. 2): ~16 fold
Spermidine intracellular content (ZR-75-1 cells [5]; 50 μM compound, 1 h): 0.81 ± 0.14 nmol/mg protein
Spermidine intracellular content (ZR-75-1 cells [5]; 50 μM compound, 6 h): 0.73 ± 0.11 nmol/mg protein
Spermine intracellular content (ZR-75-1 cells [5]; 50 μM compound, 6 h): 8.60 ± 0.29 nmol/mg protein
Spermidine intracellular content (ZR-75-1 cells [5]; [10]): 0.76 ± 0.04 nmol/mg protein
Spermidine intracellular content (ZR-75-1 cells [5]; [11]): 0.70 ± 0.03 nmol/mg protein
Spermidine intracellular content (ZR-75-1 cells [5]; 200 μM compound, 1 h): 0.79 ± 0.11 nmol/mg protein
Spermidine intracellular content (ZR-75-1 cells [5]; 200 μM compound, 6 h): 0.76 ± 0.11 nmol/mg protein
Prevention of the reversal of DFMO-induced growth inhibition by spermidine (ZR-75-1 cells [6]): unable to prevent the reversal
inhibition at 200 µM (ZR-75-1 cells [7]; 5 μM [3H]spermidine, 6 hours, no CHX, read-out: Decrease of net spermidine accumulation): 50%
activity at 200 µM (ZR-75-1 cells [7]; read-out: Cellular level of newly internalized spermidine relative to control conditions): 20%

SMILES: N=C(N)NN [aminoguanidine, reference compound]
Effect on cell growth, compound alone (ZR-75-1 cells [8]): slight inhibitory effect

SMILES: NCCCCN [Putrescine, 1,4-butane-diamine]
Km (polyamine transporter [9]): 3.7 ± 0.4 µM

Reference: US6083496A, “Polyamine transport inhibitors” (priority 1996, dated 2000)
